Toxic doses and inconclusive results are not listed. No stated cut-off is given here; in the data, active means T/C of 150% or more; inactive means T/C below 125%.
Test system: L1210 leukemia ip in BDF1 mice, survival T/C
Test: NCI In Vivo Anticancer Drug Screen. Data for tumor model L1210 Leukemia (intraperitoneal) in B6D2F1 (BDF1) mice
Conditions: endpoint: mean survival time, higher = longer survival
How it was run: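 Read-out is survival time, reported as the treated-group measurement over the vehicle-control measurement.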

[1] = dose: 100.0 mg/kg/injection, schedule: Q01DX009 (ip), vehicle: Klucel (hydroxypropylcellulose) (HPC)
[2] = dose: 100.0 mg/kg/injection, schedule: Q04DX003 (ip), vehicle: Klucel (hydroxypropylcellulose) (HPC)
[3] = dose: 200.0 mg/kg/injection, schedule: Q01DX009 (ip), vehicle: Klucel (hydroxypropylcellulose) (HPC)
[4] = dose: 200.0 mg/kg/injection, schedule: Q04DX003 (ip), vehicle: Klucel (hydroxypropylcellulose) (HPC)
[5] = dose: 400.0 mg/kg/injection, schedule: Q01DX009 (ip), vehicle: Klucel (hydroxypropylcellulose) (HPC)
[6] = dose: 400.0 mg/kg/injection, schedule: Q04DX003 (ip), vehicle: Klucel (hydroxypropylcellulose) (HPC)
[7] = dose: 100.0 mg/kg/injection, schedule: Q04DX002 (ip), vehicle: saline
[8] = dose: 100.0 mg/kg/injection, schedule: Q01DX001 (ip), vehicle: saline
[9] = dose: 100.0 mg/kg/injection, schedule: Q04DX002 (ip), vehicle: Klucel (hydroxypropylcellulose) (HPC)
[10] = dose: 200.0 mg/kg/injection, schedule: Q04DX002 (ip), vehicle: Klucel (hydroxypropylcellulose) (HPC)
[11] = dose: 400.0 mg/kg/injection, schedule: Q04DX002 (ip), vehicle: Klucel (hydroxypropylcellulose) (HPC)
[12] = dose: 100.0 mg/kg/injection, schedule: Q01DX009 (ip), vehicle: saline with Tween-80
[13] = dose: 200.0 mg/kg/injection, schedule: Q01DX009 (ip), vehicle: saline with Tween-80
[14] = dose: 100.0 mg/kg/injection, schedule: Q04DX003 (ip), vehicle: saline
[15] = dose: 200.0 mg/kg/injection, schedule: Q04DX003 (ip), vehicle: saline
[16] = dose: 400.0 mg/kg/injection, schedule: Q04DX003 (ip), vehicle: saline

Measured: T/C

O=C(NCCBr)Nc1ccc2c(c1)OCO2
inactive: [1] 94 % of control | [2] 111 % of control | [3] 102 % of control | [4] 101 % of control | [5] 96 % of control | [6] 108 % of control

O=C(O)c1cc(N=Nc2ccc(S(=O)(=O)Nc3nccs3)cc2)ccc1O
inactive: dose: 100.0 mg/kg/injection, schedule: Q01DX001 (ip), vehicle: carboxymethylcellulose (CMC) 95 % of control | dose: 200.0 mg/kg/injection, schedule: Q01DX001 (ip), vehicle: carboxymethylcellulose (CMC) 95 % of control | dose: 400.0 mg/kg/injection, schedule: Q01DX001 (ip), vehicle: carboxymethylcellulose (CMC) 101 % of control

Nc1ccc(F)c(Cl)c1
inactive: [7] 121 % of control | dose: 200.0 mg/kg/injection, schedule: Q04DX002 (ip), vehicle: saline 98 % of control | dose: 400.0 mg/kg/injection, schedule: Q04DX002 (ip), vehicle: saline 105 % of control

Oc1ccc(O)c(Cl)c1
inactive: dose: 50.0 mg/kg/injection, schedule: Q01DX001 (ip), vehicle: saline 107 % of control | dose: 50.0 mg/kg/injection, schedule: Q04DX002 (ip), vehicle: saline 106 % of control | dose: 100.0 mg/kg/injection, schedule: Q01DX001 (ip), vehicle: Klucel (hydroxypropylcellulose) (HPC) 94 % of control | [8] 107 % of control | [7] 92 % of control | dose: 200.0 mg/kg/injection, schedule: Q01DX001 (ip), vehicle: Klucel (hydroxypropylcellulose) (HPC) 94 % of control

CCN(CC)CC(C)(C)/C=N/N=C(N)N
inactive: dose: 15.0 mg/kg/injection, schedule: Q01DX Z (ip), vehicle: saline 98 % of control | dose: 30.0 mg/kg/injection, schedule: Q01DX Z (ip), vehicle: saline 91 % of control | dose: 60.0 mg/kg/injection, schedule: Q01DX Z (ip), vehicle: saline 105 % of control

COC(=O)C(Br)C(OC)c1ccccc1 (stereo unspecified)
inactive: [1] 96 % of control | [3] 96 % of control | [5] 98 % of control

O=S(=O)(c1ccccc1)N1CN2CN(C1)CN(S(=O)(=O)c1ccccc1)C2
inactive: [9] 103 % of control | [10] 106 % of control | [11] 89 % of control

CCc1cccc(CC)c1N1C(=O)CC(Sc2ccccc2N)C1=O (stereo unspecified)
inactive: dose: 100.0 mg/kg/injection, schedule: Q01DX009 (ip), vehicle: gum acacia 93 % of control | dose: 100.0 mg/kg/injection, schedule: Q04DX003 (ip), vehicle: gum acacia 96 % of control | dose: 200.0 mg/kg/injection, schedule: Q01DX009 (ip), vehicle: gum acacia 91 % of control | dose: 200.0 mg/kg/injection, schedule: Q04DX003 (ip), vehicle: gum acacia 91 % of control | dose: 400.0 mg/kg/injection, schedule: Q01DX009 (ip), vehicle: gum acacia 98 % of control | dose: 400.0 mg/kg/injection, schedule: Q04DX003 (ip), vehicle: gum acacia 100 % of control

Cc1ccc(N=Nc2ccc(C)cc2NC(=O)Nc2ccccc2C(F)(F)F)cc1
inactive: [1] 92 % of control | [3] 90 % of control | [5] 90 % of control

CC(C)CCCC(C)C1CCC2C3CC=C4CC(S)CCC4(C)C3CCC12C (stereo unspecified)
inactive: dose: 60.0 mg/kg/injection, schedule: Q04DX003 (sc), vehicle: steriod suspending solution 100 % of control | dose: 120.0 mg/kg/injection, schedule: Q04DX003 (sc), vehicle: steriod suspending solution 109 % of control | dose: 240.0 mg/kg/injection, schedule: Q04DX003 (sc), vehicle: steriod suspending solution 105 % of control

CC(=O)NOCc1ccc([N+](=O)[O-])cc1
inactive: [2] 95 % of control | [4] 100 % of control | [6] 97 % of control

CN(C)C(=O)Sc1ccc2c(c1)CCC1C2CCC2(C)C(=O)CCC12 (stereo unspecified)
inactive: dose: 100.0 mg/kg/injection, schedule: Q01DX001 (ip), vehicle: gum acacia 101 % of control | dose: 200.0 mg/kg/injection, schedule: Q01DX001 (ip), vehicle: gum acacia 101 % of control | dose: 400.0 mg/kg/injection, schedule: Q01DX001 (ip), vehicle: gum acacia 97 % of control

O=C(N/N=C\C=C\c1ccccc1)c1ccc(Cl)cc1
inactive: dose: 50.0 mg/kg/injection, schedule: Q01DX009 (ip), vehicle: saline with Tween-80 93 % of control | [12] 89 % of control | [13] 86 % of control

CC(=O)Nc1cc2c(cc1Br)-c1ccc(F)cc1C2
inactive: dose: 200.0 mg/kg/injection, schedule: Q01DX Z (ip), vehicle: saline 98 % of control | dose: 400.0 mg/kg/injection, schedule: Q01DX Z (ip), vehicle: saline 102 % of control | dose: 800.0 mg/kg/injection, schedule: Q01DX Z (ip), vehicle: saline 110 % of control

CCOC(=O)C(CC(C(=O)OCC)C(=O)OCC)C(=O)OCC
inactive: dose: 75.0 mg/kg/injection, schedule: Q01DX009 (ip), vehicle: saline 98 % of control | [14] 113 % of control | dose: 150.0 mg/kg/injection, schedule: Q01DX009 (ip), vehicle: saline 98 % of control | [15] 97 % of control | dose: 300.0 mg/kg/injection, schedule: Q01DX009 (ip), vehicle: saline 95 % of control | [16] 97 % of control

N=C1C=C(N)C(=O)c2ccccc21
inactive: dose: 0.78 mg/kg/injection, schedule: Q01DX009 (ip), vehicle: Klucel (hydroxypropylcellulose) (HPC) 103 % of control | dose: 1.56 mg/kg/injection, schedule: Q01DX009 (ip), vehicle: Klucel (hydroxypropylcellulose) (HPC) 103 % of control | dose: 3.13 mg/kg/injection, schedule: Q01DX009 (ip), vehicle: Klucel (hydroxypropylcellulose) (HPC) 107 % of control | [12] 101 % of control

CSc1n[n+](-c2ccccc2)cs1
inactive: [8] 103 % of control | dose: 200.0 mg/kg/injection, schedule: Q01DX001 (ip), vehicle: saline 103 % of control | dose: 400.0 mg/kg/injection, schedule: Q01DX001 (ip), vehicle: saline 100 % of control

O=c1[nH]c2cc(Cl)c(Cl)cc2o1
inactive: dose: 19.0 mg/kg/injection, schedule: Q01DX Z (ip), vehicle: carboxymethylcellulose (CMC) 95 % of control | dose: 37.5 mg/kg/injection, schedule: Q01DX Z (ip), vehicle: carboxymethylcellulose (CMC) 95 % of control | dose: 75.0 mg/kg/injection, schedule: Q01DX Z (ip), vehicle: carboxymethylcellulose (CMC) 96 % of control | [1] 93 % of control | dose: 100.0 mg/kg/injection, schedule: Q04DX003 (ip), vehicle: other 102 % of control | [3] 93 % of control | dose: 200.0 mg/kg/injection, schedule: Q04DX003 (ip), vehicle: other 95 % of control | dose: 400.0 mg/kg/injection, schedule: Q04DX003 (ip), vehicle: other 97 % of control

CC(C)(C)OOC(=O)c1ccccc1O
inactive: dose: 100.0 mg/kg/injection, schedule: Q01DX009 (ip), vehicle: saline sonified 113 % of control | [14] 106 % of control | [15] 106 % of control | [16] 110 % of control

C(=N\N=C\c1ccccc1)/c1ccccc1
inactive: [12] 97 % of control | [9] 98 % of control | [13] 100 % of control | [10] 91 % of control | dose: 400.0 mg/kg/injection, schedule: Q01DX009 (ip), vehicle: saline with Tween-80 100 % of control | [11] 102 % of control

CC(=O)NC1C(OC(C)=O)OC2COCOC2C1OC(C)=O (stereo unspecified)
inactive: dose: 100.0 mg/kg/injection, schedule: Q01DX001 (ip), vehicle: saline with Tween-80 97 % of control | dose: 200.0 mg/kg/injection, schedule: Q01DX001 (ip), vehicle: saline with Tween-80 97 % of control | dose: 400.0 mg/kg/injection, schedule: Q01DX001 (ip), vehicle: saline with Tween-80 105 % of control

C=CCCC[P+](c1ccccc1)(c1ccccc1)c1ccccc1
inactive: dose: 3.13 mg/kg/injection, schedule: Q01DX009 (ip), vehicle: saline 95 % of control | dose: 6.25 mg/kg/injection, schedule: Q01DX009 (ip), vehicle: saline 103 % of control | dose: 12.5 mg/kg/injection, schedule: Q01DX009 (ip), vehicle: saline with Tween-80 108 % of control | dose: 12.5 mg/kg/injection, schedule: Q01DX009 (ip), vehicle: saline 100 % of control | dose: 25.0 mg/kg/injection, schedule: Q01DX009 (ip), vehicle: saline with Tween-80 108 % of control | dose: 50.0 mg/kg/injection, schedule: Q01DX009 (ip), vehicle: saline 101 % of control

— PubChem BioAssay AID248 (DTP/NCI, 2004)
